Measurements reported in patent US10167262B2, “Herbicidal substituted 3-arylpyrazoles” (FMC CORPORATION, priority 2014, dated 2019).

Key:
Type in all cases: in vivo
[1] = system: barnyardgrass (Echinochloa crus-galli); experiment: Test A pre-/postemergence greenhouse herbicide test, visual injury rating 0-100
How it was run: (§1)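 Pre + post at same time; soil = loam/sand. Post stage 1–2 leaf, 2–10 cm. Formulation: non-phytotoxic solvent mix w/ surfactant. Greenhouse ~10 d, visual rating vs untreated, 0 (no effect)–100 (complete control).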

[2] = system: corn (Zea mays); experiment: as above
How it was run: as §1

[3] = system: giant foxtail (Setaria faberii); experiment: as above
How it was run: as §1

[4] = system: large (Lg) crabgrass (Digitaria sanguinalis); experiment: as above
How it was run: as §1

[5] = system: morningglory (Ipomoea spp.); experiment: as above
How it was run: as §1

[6] = system: pigweed (Amaranthus retroflexus); experiment: as above
How it was run: as §1

[7] = system: velvetleaf (Abutilon theophrasti); experiment: as above
How it was run: as §1

[8] = system: wheat (Triticum aestivum); experiment: as above
How it was run: as §1

[9] = system: Italian ryegrass (Lolium multiflorum); experiment: Test C pre-/postemergence greenhouse test, plant response rating 0-100
Excerpt: (§2) Seeds of plant species selected from blackgrass (Alopecurus myosuroides), Italian ryegrass (Lolium multiflorum), winter wheat (Triticum aestivum), galium (catchweed bedstraw, Galium aparine), corn (Zea mays), large (Lg) crabgrass (Digitaria sanguinalis), giant foxtail (Setaria faberii), johnsongrass (Sorghum halepense), lambsquarters (Chenopodium album), morningglory (Ipomoea coccinea), yellow nutsedge (Cyperus esculentus), pigweed (Amaranthus retroflexus), ragweed (common ragweed, Ambrosia elatior), soybean (Glycine max), barnyardgrass (Echinochloa crus-galli), oilseed rape (Brassica napus), waterhemp (common waterhemp, Amaranthus rudis), and velvetleaf (Abutilon theophrasti) were planted into a blend of loam soil and sand and treated preemergence with test chemicals formulated in a non-phytotoxic solvent mixture which included a surfactant.
(§3) At the same time, plants selected from these crop and weed species and also winter barley (Hordeum vulgare), bermudagrass (Cynodon dactylon), downy bromegrass (Bromus tectorum), canarygrass (Phalaris minor), cocklebur (common cocklebur, Xanthium strumarium), woolly cupgrass (Eriochloa villosa), deadnettle (henbit deadnettle, Lamium amplexicaule), green foxtail (Setaria viridis), goosegrass (Eleusine indica), surinam grass (Brachiaria decumbens), windgrass (Apera spica-venti), chickweed (common chickweed, Stellaria media), kochia (Kochia scoparia), and wild oat (Avena fatua), were planted in pots containing Redi-Earth® planting medium (Scotts Company, 14111 Scottslawn Road, Marysville, Ohio 43041) comprising spaghnum peat moss, vermiculite, wetting agent and starter nutrients and treated with postemergence applications of test chemicals formulated in the same manner. Plants ranged in height from 2 to 18 cm (1- to 4-leaf stage) for postemergence treatments. Treated plants and controls were maintained in a greenhouse for 13 to 15 days, after which time all species were compared to controls and visually evaluated. Plant response ratings, summarized in Table C, are based on a scale of 0 to 100 where 0 is no effect and 100 is complete control. A dash (-) response means no test result.

[10] = system: giant foxtail (Setaria faberii); experiment: as above; conditions: Postemergence; for Plant response rating, Foxtail, Giant: scale 0 to 100
Excerpt: as §2, §3

[11] = system: soybean (Glycine max); experiment: as above
Excerpt: as §2, §3

[12] = system: chickweed (common chickweed, Stellaria media); experiment: Test C postemergence greenhouse test, plant response rating 0-100; conditions: for Plant response rating, Chickweed: scale 0 to 100
Excerpt: as §3

[13] = system: kochia (Kochia scoparia); experiment: as above; conditions: for Plant response rating, Kochia: scale 0 to 100
Excerpt: as §3

[14] = system: wild oat (Avena fatua); experiment: as above; conditions: for Plant response rating, Oat, Wild: scale 0 to 100
Excerpt: as §3

[15] = Postemergence, 250 g ai/ha, scale 0 to 100
[16] = Postemergence, 500 g ai/ha, scale 0 to 100
[17] = Preemergence, 0 to 100 scale (0 no effect, 100 complete control), rate 500 g ai/ha per head r3, sub-head of this section not shown

O=C(c1ccccc1)c1cn(S(=O)(=O)C(F)(F)F)nc1-c1cc(Cl)cc(Cl)c1 [Compound 2]
Plant response rating (0 to 100 scale), Barnyardgrass ([1]; Postemergence, 125 g ai/ha): 0 | Plant response rating (0 to 100 scale), Barnyardgrass ([1]; Postemergence, 500 g ai/ha): 0 | Barnyardgrass plant response rating (0 = no effect, 100 = complete control) ([1]; Preemergence, 125 g ai/ha): 0 | Plant response rating (0 to 100 scale), Barnyardgrass ([1]; Preemergence, 500 g ai/ha): 0 | Plant response rating (0 to 100 scale), Corn ([2]; Postemergence, 125 g ai/ha): 0 | Plant response rating (0 to 100 scale), Corn ([2]; Postemergence, 500 g ai/ha): 0 | Corn plant response rating (0 = no effect, 100 = complete control) ([2]; Preemergence, 125 g ai/ha): 0 | Plant response rating (0 to 100 scale), Corn ([2]; Preemergence, 500 g ai/ha): 0 | Plant response rating (0 to 100 scale), Foxtail, Giant ([3]; Postemergence, 125 g ai/ha): 0 | Plant response rating (0 to 100 scale), Foxtail, Giant ([3]; Postemergence, 500 g ai/ha): 0 | Foxtail, Giant plant response rating (0 = no effect, 100 = complete control) ([3]; Preemergence, 125 g ai/ha): 0 | Plant response rating (0 to 100 scale), Foxtail, Giant ([3]; Preemergence, 500 g ai/ha): 0 | Plant response rating (0 to 100 scale), Crabgrass, Large ([4]; Postemergence, 125 g ai/ha): 0 | Plant response rating (0 to 100 scale), Crabgrass, Large ([4]; Postemergence, 500 g ai/ha): 0 | Crabgrass, Large plant response rating (0 = no effect, 100 = complete control) ([4]; Preemergence, 125 g ai/ha): 0 | Plant response rating (0 to 100 scale), Crabgrass, Large ([4]; Preemergence, 500 g ai/ha): 0 | Plant response rating (0 to 100 scale), Morningglory ([5]; Postemergence, 125 g ai/ha): 0 | Plant response rating (0 to 100 scale), Morningglory ([5]; Postemergence, 500 g ai/ha): 0 | Morningglory plant response rating (0 = no effect, 100 = complete control) ([5]; Preemergence, 125 g ai/ha): 0 | Plant response rating (0 to 100 scale), Morningglory ([5]; Preemergence, 500 g ai/ha): 0 | Plant response rating (0 to 100 scale), Pigweed ([6]; Postemergence, 125 g ai/ha): 90 | Plant response rating (0 to 100 scale), Pigweed ([6]; Postemergence, 500 g ai/ha): 100 | Pigweed plant response rating (0 = no effect, 100 = complete control) ([6]; Preemergence, 125 g ai/ha): 50 | Plant response rating (0 to 100 scale), Pigweed ([6]; Preemergence, 500 g ai/ha): 100 | Plant response rating (0 to 100 scale), Velvetleaf ([7]; Postemergence, 125 g ai/ha): 90 | Plant response rating (0 to 100 scale), Velvetleaf ([7]; Postemergence, 500 g ai/ha): 100 | Velvetleaf plant response rating (0 = no effect, 100 = complete control) ([7]; Preemergence, 125 g ai/ha): 20 | Plant response rating (0 to 100 scale), Velvetleaf ([7]; Preemergence, 500 g ai/ha): 100 | Plant response rating (0 to 100 scale), Wheat ([8]; Postemergence, 125 g ai/ha): 0 | Plant response rating (0 to 100 scale), Wheat ([8]; Postemergence, 500 g ai/ha): 0 | Wheat plant response rating (0 = no effect, 100 = complete control) ([8]; Preemergence, 125 g ai/ha): 0 | Plant response rating (0 to 100 scale), Wheat ([8]; Preemergence, 500 g ai/ha): 0 | Plant response rating (0 to 100), Ryegrass, Italian ([9]; Postemergence, 62 g ai/ha): 0 | Plant response rating (0 to 100), Ryegrass, Italian ([9]; Postemergence, 125 g ai/ha): 0 | Plant response rating, Ryegrass, Italian [9, 15]: 0 | Plant response rating, Ryegrass, Italian [9, 16]: 0 | Plant response rating, Ryegrass, Italian [9, 17]: 0 | Plant response rating (0 to 100), Foxtail, Giant ([10]; 62 g ai/ha): 0 | Plant response rating (0 to 100), Foxtail, Giant ([10]; 125 g ai/ha): 0 | Plant response rating, Foxtail, Giant ([10]; 250 g ai/ha): 0 | Plant response rating, Foxtail, Giant ([10]; 500 g ai/ha): 0 | Plant response rating (0 to 100), Soybean ([11]; Postemergence, 62 g ai/ha): 0 | Plant response rating (0 to 100), Soybean ([11]; Postemergence, 125 g ai/ha): 0 | Plant response rating, Soybean [11, 15]: 0 | Plant response rating, Soybean [11, 16]: 5 | Plant response rating, Soybean [11, 17]: 0 | Plant response rating (0 to 100), Chickweed ([12]; 62 g ai/ha): 98 | Plant response rating (0 to 100), Chickweed ([12]; 125 g ai/ha): 100 | Plant response rating, Chickweed ([12]; 250 g ai/ha): 100 | Plant response rating, Chickweed ([12]; 500 g ai/ha): 100 | Plant response rating (0 to 100), Kochia ([13]; 62 g ai/ha): 80 | Plant response rating (0 to 100), Kochia ([13]; 125 g ai/ha): 85 | Plant response rating, Kochia ([13]; 250 g ai/ha): 90 | Plant response rating, Kochia ([13]; 500 g ai/ha): 95 | Plant response rating (0 to 100), Oat, Wild ([14]; 62 g ai/ha): 0 | Plant response rating (0 to 100), Oat, Wild ([14]; 125 g ai/ha): 0 | Plant response rating, Oat, Wild ([14]; 250 g ai/ha): 0 | Plant response rating, Oat, Wild ([14]; 500 g ai/ha): 0
